The source made the active and inactive calls. The calls are words filed in the database; no cut-off is given here.
Experiments:
[1] = Dissociation constant, pKa of the compound; format: physicochemical
[2] = system: Human immunodeficiency virus 1; assay: Antiviral activity against NNRTI-resistant HIV1 harboring reverse transcriptase Y188L mutant infected in human MT4 cells assessed as inhibition of viral replication after 72 hrs by HeLa-CD4-LTR-beta-gal assay; format: functional, organism-based; conditions: Human immunodeficiency virus 1, MT4, 72 h
[3] = system: Human immunodeficiency virus 1; assay: Antiviral activity against HIV1 expressing wild type reverse transcriptase infected in human MT4 cells assessed as inhibition of viral replication after 72 hrs by HeLa-CD4-LTR-beta-gal assay; format: functional, organism-based; conditions: Human immunodeficiency virus 1, MT4, 72 h
[4] = system: Human immunodeficiency virus 1; assay: Antiviral activity against NNRTI-resistant HIV1 harboring reverse transcriptase Y181C mutant infected in human MT4 cells assessed as inhibition of viral replication after 72 hrs by HeLa-CD4-LTR-beta-gal assay; format: functional, organism-based; conditions: Human immunodeficiency virus 1, MT4, 72 h
[5] = system: Human immunodeficiency virus 1; assay: Antiviral activity against NNRTI-resistant HIV1 harboring reverse transcriptase K103N mutant infected in human MT4 cells assessed as inhibition of viral replication after 72 hrs by HeLa-CD4-LTR-beta-gal assay; format: functional, organism-based; conditions: Human immunodeficiency virus 1, MT4, 72 h
[6] = system: Human immunodeficiency virus 1; assay: Antiviral activity against NNRTI-resistant HIV1 harboring reverse transcriptase Y181C/F227C double mutant infected in human MT4 cells assessed as inhibition of viral replication after 72 hrs by HeLa-CD4-LTR-beta-gal assay; format: functional, organism-based
[7] = system: Human immunodeficiency virus 1; assay: Antiviral activity against NNRTI-resistant HIV1 harboring reverse transcriptase Y181I/V179F double mutant infected in human MT4 cells assessed as inhibition of viral replication after 72 hrs by HeLa-CD4-LTR-beta-gal assay; format: functional, organism-based
[8] = system: Human immunodeficiency virus 1; assay: Ratio of EC50 for HIV1 expressing wild type reverse transcriptase in presence of human serum albumin and human alpha-1 acid glycoprotein to EC50 for HIV1 expressing wild type reverse transcriptase; format: functional
[9] = system: Human immunodeficiency virus 1; assay: Antiviral activity against NNRTI-resistant HIV1 harboring reverse transcriptase Y181C/K103N double mutant infected in human MT4 cells assessed as inhibition of viral replication after 72 hrs by HeLa-CD4-LTR-beta-gal assay; format: functional, organism-based
[10] = system: Human immunodeficiency virus 1; assay: Antiviral activity against NNRTI-resistant HIV1 harboring reverse transcriptase Y181C/V179F double mutant infected in human MT4 cells assessed as inhibition of viral replication after 72 hrs by HeLa-CD4-LTR-beta-gal assay; format: functional, organism-based
[11] = system: Human immunodeficiency virus 1; assay: Selectivity ratio of EC50 for NNRTI-resistant HIV1 harboring reverse transcriptase Y181V mutant to EC50 for HIV1 expressing wild type reverse transcriptase; format: functional
[12] = Oral bioavailability in mouse at 5 mg/kg; format: ADME, organism-based; conditions: in vivo
[13] = Half life in cynomolgus monkey at 1 mg/kg, iv; format: ADME, organism-based, Macaca fascicularis; design: dose 1 mg/kg, route intravenous; conditions: in vivo
[14] = Volume of distribution at steady state in dog at 1 mg/kg, iv; format: ADME, organism-based, Canis lupus familiaris; design: dose 1 mg/kg, route intravenous; conditions: in vivo, read-out: Vdss
[15] = system: Rattus norvegicus; assay: AUC (0 to infinity) in Sprague-Dawley rat at 5 mg/kg, po; format: ADME, organism-based, Plasma; design: time infinity, dose 5 mg/kg, route oral; conditions: in vivo
[16] = system: Cynomolgus monkey; assay: AUC (0 to infinity) in cynomolgus monkey at 5 mg/kg, po; format: ADME, organism-based, Macaca fascicularis, Plasma; design: time infinity, dose 5 mg/kg, route oral; conditions: in vivo
[17] = Clearance in dog at 1 mg/kg, iv; format: ADME, organism-based, Canis lupus familiaris; design: dose 1 mg/kg, route intravenous; conditions: in vivo
[18] = Oral bioavailability in Sprague-Dawley rat at 5 mg/kg; format: ADME, organism-based; conditions: in vivo
[19] = Oral bioavailability in dog at 5 mg/kg; format: ADME, organism-based, Canis lupus familiaris; conditions: in vivo
[20] = system: Human immunodeficiency virus 1; assay: Selectivity ratio of EC50 for NNRTI-resistant HIV1 harboring reverse transcriptase Y188L mutant to EC50 for HIV1 expressing wild type reverse transcriptase; format: functional
[21] = Half life in dog at 1 mg/kg, iv; format: ADME, organism-based, Canis lupus familiaris; design: dose 1 mg/kg, route intravenous; conditions: in vivo
[22] = Half life in Sprague-Dawley rat at 1 mg/kg, iv; format: ADME, organism-based; design: dose 1 mg/kg, route intravenous; conditions: in vivo
[23] = Volume of distribution at steady state in Sprague-Dawley rat at 1 mg/kg, iv; format: ADME, organism-based; design: dose 1 mg/kg, route intravenous; conditions: in vivo, read-out: Vdss
[24] = Volume of distribution at steady state in cynomolgus monkey at 1 mg/kg, iv; format: ADME, organism-based, Macaca fascicularis; design: dose 1 mg/kg, route intravenous; conditions: in vivo, read-out: Vdss
[25] = system: Human immunodeficiency virus 1; assay: Selectivity ratio of EC50 for NNRTI-resistant HIV1 harboring reverse transcriptase Y181I mutant to EC50 for HIV1 expressing wild type reverse transcriptase; format: functional
[26] = system: Human immunodeficiency virus 1; assay: Antiviral activity against NNRTI-resistant HIV1 harboring reverse transcriptase Y181V mutant infected in human MT4 cells assessed as inhibition of viral replication after 72 hrs by HeLa-CD4-LTR-beta-gal assay; format: functional, organism-based
[27] = Volume of distribution at steady state in mouse at 1 mg/kg, iv; format: ADME, organism-based; design: dose 1 mg/kg, route intravenous; conditions: in vivo, read-out: Vdss
[28] = Clearance in mouse at 1 mg/kg, iv; format: ADME, organism-based; design: dose 1 mg/kg, route intravenous; conditions: in vivo
[29] = system: Canis familiaris; assay: AUC (0 to infinity) in dog at 5 mg/kg, po; format: ADME, organism-based, Canis lupus familiaris, Plasma; design: time infinity, dose 5 mg/kg, route oral; conditions: in vivo
[30] = system: Human immunodeficiency virus 1; assay: Antiviral activity against NNRTI-resistant HIV1 harboring reverse transcriptase Y181I mutant infected in human MT4 cells assessed as inhibition of viral replication after 72 hrs by HeLa-CD4-LTR-beta-gal assay; format: functional, organism-based
[31] = Clearance in Sprague-Dawley rat at 1 mg/kg, iv; format: ADME, organism-based; design: dose 1 mg/kg, route intravenous; conditions: in vivo
[32] = Clearance in cynomolgus monkey at 1 mg/kg, iv; format: ADME, organism-based, Macaca fascicularis; design: dose 1 mg/kg, route intravenous; conditions: in vivo
[33] = system: Mus musculus; assay: AUC (0 to infinity) in mouse at 5 mg/kg, po; format: ADME, organism-based, Plasma; design: time infinity, dose 5 mg/kg, route oral; conditions: in vivo
[34] = Half life in mouse at 1 mg/kg, iv; format: ADME, organism-based; design: dose 1 mg/kg, route intravenous; conditions: in vivo
[35] = Oral bioavailability in cynomolgus monkey at 5 mg/kg; format: ADME, organism-based, Macaca fascicularis; conditions: in vivo

## N#Cc1cc(Cl)cc(Oc2c(Cl)ccc(CNC(=O)c3[nH]cnc3Cl)c2F)c1
[1]
  pKa: 8.9
[2]
  EC50: 5.6 nM
[3]
  EC50: 0.1 nM
[4]
  EC50: 0.2 nM

## CCCc1nc(Cl)c(C(=O)NCc2ccc(Cl)c(Oc3cc(Cl)cc(C#N)c3)c2F)[nH]1
[2]
  EC50: 240 nM
[5]
  EC50: 0.4 nM
[3]
  EC50: 0.3 nM
[4]
  EC50: 1.3 nM

## Cn1cncc1C(=O)NCc1ccc(Cl)c(Oc2cc(Cl)cc(C#N)c2)c1F
[2]
  EC50: > 1000 nM
[5]
  EC50: 460 nM
[3]
  EC50: 120 nM
[4]
  EC50: > 1000 nM

## N#Cc1cc(Cl)cc(Oc2c(Cl)ccc(CNC(=O)c3cc4ccccc4[nH]3)c2F)c1
[2]
  EC50: > 1000 nM
[5]
  EC50: 26 nM
[3]
  EC50: 8.9 nM
[4]
  EC50: 58 nM

## Cc1cc(C#N)cc(C)c1Oc1nc(Nc2ccc(C#N)cc2)nc(N)c1Br [ETRAVIRINE]
[2]
  EC50: 0.9 nM
[6]
  inhibition: inactive
[7]
  inhibition: inactive
[8]
  Ratio EC50: 13
[9]
  inhibition: inactive
[5]
  EC50: 0.4 nM
[3]
  EC50: 0.6 nM
[4]
  EC50: 2.4 nM
[10]
  inhibition: inactive
[11]
  Ratio EC50: 83

## N#Cc1cc(Cl)cc(Oc2c(Cl)ccc(CNC(=O)c3cc4ccccc4o3)c2F)c1
[2]
  EC50: > 1000 nM
[5]
  EC50: 380 nM
[3]
  EC50: 52 nM
[4]
  EC50: 340 nM

## N#Cc1cc(Cl)cc(Oc2c(Cl)ccc(CNC(=O)c3nc4ccccc4[nH]3)c2F)c1
[2]
  EC50: > 1000 nM
[5]
  EC50: 18 nM
[3]
  EC50: 5.1 nM
[4]
  EC50: 27 nM

## Cc1cc(/C=C/C#N)cc(C)c1Nc1ccnc(Nc2ccc(C#N)cc2)n1 [RILPIVIRINE]
[2]
  EC50: 3.7 nM
[6]
  inhibition: inactive
[7]
  inhibition: inactive
[9]
  inhibition: inactive
[10]
  inhibition: inactive

## CCc1nc(Cl)c(C(=O)NCc2ccc(Cl)c(Oc3cc(Cl)cc(C#N)c3)c2F)[nH]1
[2]
  EC50: 76 nM
[3]
  EC50: 0.3 nM
[4]
  EC50: 0.8 nM

## N#Cc1cc(Cl)cc(Oc2c(Cl)ccc(CNC(=O)c3cnc[nH]3)c2F)c1
[2]
  EC50: > 1000 nM
[5]
  EC50: 48 nM
[3]
  EC50: 9.7 nM
[4]
  EC50: 260 nM

## N#Cc1cc(Cl)cc(Oc2c(Cl)ccc(CNC(=O)c3[nH]c(CO)nc3Cl)c2F)c1
[2]
  EC50: 24 nM
[3]
  EC50: 0.3 nM
[4]
  EC50: 1.2 nM

## N#Cc1cc(Cl)cc(Oc2c(Cl)ccc(CNC(=O)c3[nH]cnc3C(F)(F)F)c2F)c1
[2]
  EC50: 320 nM
[5]
  EC50: 0.7 nM
[3]
  EC50: 0.1 nM
[4]
  EC50: 1.4 nM

## Cc1nc[nH]c1C(=O)NCc1ccc(Cl)c(Oc2cc(Cl)cc(C#N)c2)c1F
[1]
  pKa: > 12
[2]
  EC50: > 1000 nM
[5]
  EC50: 7.2 nM
[3]
  EC50: 2.4 nM
[4]
  EC50: 15 nM

## N#Cc1cc(Cl)cc(Oc2c(Br)ccc(CNC(=O)c3[nH]c(N)nc3Cl)c2F)c1
[12]
  bioavailability: 94%
[2]
  EC50: 0.5 nM
[6]; Human immunodeficiency virus 1, MT4, 72 h
  EC50: 3.2 nM
[13]
  half-life: 6.1 h
[14]
  Vd: 0.9 L/kg
[15]
  AUC: 2.51 µg·h/mL
[7]
  inhibition: Active
[16]
  AUC: 6.46 µg·h/mL
[17]
  clearance: 0.168 L/h/kg
[8]
  Ratio EC50: 71
[18]
  bioavailability: 84%
[19]
  bioavailability: 47%
[9]
  inhibition: Active
[20]
  Ratio EC50: 5
[21]
  half-life: 4.3 h
[22]
  half-life: 2.2 h
[23]
  Vd: 3.6 L/kg
[24]
  Vd: 1.8 L/kg
[25]
  Ratio EC50: <3
[26]
  inhibition: Active
[27]
  Vd: 2.1 L/kg
[28]
  clearance: 0.492 L/h/kg
[29]
  AUC: 14.3 µg·h/mL
[30]
  inhibition: Active
[31]
  clearance: 1.72 L/h/kg
[3]
  EC50: 0.1 nM
[32]
  clearance: 0.282 L/h/kg
[33]
  AUC: 9.61 µg·h/mL
[10]
  inhibition: Active
[34]
  half-life: 3.1 h
[35]
  bioavailability: 34%
[11]
  Ratio EC50: <3

## N#Cc1cc(Cl)cc(Oc2c(Cl)ccc(CNC(=O)c3ccc(S(N)(=O)=O)cc3Cl)c2F)c1
[2]
  EC50: > 1000 nM
[5]
  EC50: 60 nM
[3]
  EC50: 13 nM
[4]
  EC50: 180 nM

## N#Cc1cc(Cl)cc(Oc2c(Cl)ccc(CNC(=O)c3[nH]c(N)nc3Cl)c2F)c1
[2]
  EC50: 0.9 nM
[3]
  EC50: 0.1 nM

## O=C1Nc2ccc(Cl)cc2[C@@](C#CC2CC2)(C(F)(F)F)O1 [EFAVIRENZ]
[2]
  EC50: 157 nM
[5]
  EC50: 20 nM
[4]
  EC50: 1 nM

## N#Cc1cc(Cl)cc(Oc2c(Cl)ccc(CNC(=O)c3[nH]c(O)nc3Cl)c2F)c1
[2]
  EC50: > 1000 nM
[5]
  EC50: 14 nM
[3]
  EC50: 5.3 nM
[4]
  EC50: 57 nM

## Cc1cc(S(N)(=O)=O)ccc1NC(=O)COc1ccc(Cl)cc1C(=O)c1cc(Cl)cc(C#N)c1
[2]
  EC50: 18 nM
[5]
  EC50: 0.5 nM
[3]
  EC50: 0.3 nM
[4]
  EC50: 0.5 nM

## Cc1nc(Cl)c(C(=O)NCc2ccc(Cl)c(Oc3cc(Cl)cc(C#N)c3)c2F)[nH]1
[2]
  EC50: 11 nM
[3]
  EC50: 0.2 nM
[4]
  EC50: 0.3 nM

## N#Cc1cc(Cl)cc(Oc2c(Cl)ccc(CNC(=O)c3[nH]cnc3Br)c2F)c1
[2]
  EC50: 7.1 nM
[3]
  EC50: 0.1 nM
[4]
  EC50: 0.2 nM
